Patent publication US20070142389A1, “PIPERIDINE DERIVATIVES” (PFIZER INC., priority 2005, published 2007)
Where two headings read alike, the source gives them in different places.

How the values were obtained:
[1] = molecular target: T1, human serotonin transporter (Homo sapiens, UniProt P31645); assay: hSERT Receptor Binding ([125I]-RTI-55 displacement, HEK-293 membranes); details: hSERT, HEK-293 cell membranes, 50 pM [125I]-RTI-55, Ki from IC50 by Cheng-Prusoff; read-out: SERT Ki
T1 construct: expressed in transfected cells; host or cells: HEK-293
Method: (§1) Cell pastes of HEK-293 cells transfected with a human serotonin transporter cDNA were prepared. The cell pastes were resuspended in 400 to 700 mL of Krebs-HEPES assay buffer (25 mM HEPES, 122 mM NaCl, 3 mM KCl, 1.2 mM MgSO4, 1.3 mM CaCl2, and 11 mM glucose, pH 7.4) with a Polytron homogenizer at Setting 7 for 30 seconds. Aliquots of membranes (about 2.5 mg/mL protein) were stored in liquid nitrogen until used.
Assays were set up in FlashPlates pre-coated with 0.1 % PEI in a total volume of 250 μL containing: compound of one of the Examples (10^−5M to 10^−12M), cell membanes, and 50 pM [^125l]-RTI-55 (Perkin Elmer, NEX-272; specific activity 2200 Ci/mmol). The reaction was incubated and gently agitated for 90 minutes at room temperature, and terminated by removal of assay volume. Plates were covered, and bound [^125I]-RTI-55 was determined using a Wallac Trilux Beta Plate Counter. Test compounds were run in duplicate, and specific binding was defined as the difference between binding in the presence and absence of 10 μM citalopram.
(§2) Excel and GraphPad Prism software were used for data calculation and analysis. IC50 values were converted to Ki values using the Cheng-Prusoff equation.

[2] = molecular target: T2, human norepinephrine transporter (Homo sapiens, UniProt P23975); assay: hNET Receptor Binding ([125I]-RTI-55 displacement, HEK-293 membranes); details: hNET, HEK-293 cell membranes, 50 pM [125I]-RTI-55, Ki from IC50 by Cheng-Prusoff; read-out: NET Ki
T2 construct: expressed in transfected cells; host or cells: HEK-293
Method: as §1, with “norepinephrine” for “serotonin”, “setting” for “Setting”, “(5” for “(about 2.5”
The binding assay was set up in Beckman deep-well polypropylene plates with a total volume of 250 μL containing: compound of one of the Examples (10^−5M to 10^−12M), cell membranes, and 50 pM [^125I]-RTI-55 (Perkin Elmer, NEX-272; specific activity 2200 Ci/mmol). The reaction was incubated by gentle agitation for 90 minutes at room temperature and was terminated by filtration through Whatman GF/C filter plates using a Brandel 96-well plate harvester. Scintillation fluid (100 μL) was added to each well, and bound [^125I]-RTI-55 was determined using a Wallac Trilux Beta Plate Counter. Test compounds were run in duplicate, and specific binding was defined as the difference between binding in the presence and absence of 10 μM desipramine.
as §2

[3] = system: capsaicin-induced mechanical allodynia in a rat; assay: rat model of capsaicin-induced mechanical allodynia; assay type: in vivo; details: sc, read-out: % Inhibition of Allodynia
Method: Compounds of the present invention may be assayed for their ability to alleviate capsaicin-induced mechanical allodynia in a rat (e.g., Sluka (2002) J of Neuroscience, 22(13): 5687-5693). For example, a rat model of capsaicin-induced mechanical allodynia was carried out as follows:
On day 0, male Sprague-Dawley rats (about 150 g each) in the dark cycle were placed in suspended wire-bottom cages and allowed to acclimate for 0.5 hour in a darkened, quiet room. The day 0 paw withdrawal threshold (PWT) was determined on the left hind paw by Von Frey hair assessment using the Dixon up and down method. After assessment, the plantar muscle of the right hind paw was injected with 100 μL capsaicin (0.25% (w/v) in 10% ethanol, 10% Tween 80, in sterile saline). On day 6 the PWT of the left hind paw (contralateral from injection site) was determined for each animal. Animals from the day 6 prereads with PWT ≦11.7 g were considered allodynic responders and were regrouped so that each cage had similar mean PWT values. On day 7, responders were dosed subcutaneously with 10 mg compound/kg body weight, or with vehicle alone. The vehicle was phosphate buffered saline containing 2% Cremophor® EL (BASF Corp., Florham Park, N.J.). The contralateral PWT values were determined at 1 hour after the single dose, with the investigator blinded to the dosing scheme.
For each animal, the day 6 PWT value was subtracted from the 1 hour PWT value to give a delta PWT value that represents the change in PWT due to the 1 hour drug treatment. In addition, the day 6 PWT was subtracted from the day 0 PWT to give the baseline window of allodynia present in each animal. To determine % inhibition of allodynia of each animal normalized for vehicle controls, the following formula was used: % Inhibition of Allodynia =100× [(Delta PWT(drug)—mean Delta PWT(vehicle))/(Baseline—mean Delta PWT(vehicle))].
The mean percent inhibition of allodynia values (for eight animals assayed for each compound) +/− the standard error of the mean (SEM) are shown in Table 2.

T1 sequence (P31645 whole entry): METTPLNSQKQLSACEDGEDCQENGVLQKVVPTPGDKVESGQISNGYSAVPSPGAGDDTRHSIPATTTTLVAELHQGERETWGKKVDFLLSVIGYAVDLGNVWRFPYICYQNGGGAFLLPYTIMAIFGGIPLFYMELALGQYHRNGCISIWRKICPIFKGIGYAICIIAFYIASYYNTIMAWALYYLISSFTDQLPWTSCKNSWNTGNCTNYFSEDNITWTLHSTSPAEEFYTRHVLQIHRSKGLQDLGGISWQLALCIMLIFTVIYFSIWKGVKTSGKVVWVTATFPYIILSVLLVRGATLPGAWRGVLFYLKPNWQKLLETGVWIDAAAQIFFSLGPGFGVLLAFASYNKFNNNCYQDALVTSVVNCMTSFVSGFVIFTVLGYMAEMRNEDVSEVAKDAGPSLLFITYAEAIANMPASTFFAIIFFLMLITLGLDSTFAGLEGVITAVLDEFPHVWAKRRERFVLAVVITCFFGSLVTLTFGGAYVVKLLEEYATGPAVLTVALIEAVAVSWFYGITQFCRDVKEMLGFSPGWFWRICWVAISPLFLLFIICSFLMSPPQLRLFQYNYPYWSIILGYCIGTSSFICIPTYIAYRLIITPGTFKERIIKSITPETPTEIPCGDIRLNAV
T2 sequence (P23975 whole entry): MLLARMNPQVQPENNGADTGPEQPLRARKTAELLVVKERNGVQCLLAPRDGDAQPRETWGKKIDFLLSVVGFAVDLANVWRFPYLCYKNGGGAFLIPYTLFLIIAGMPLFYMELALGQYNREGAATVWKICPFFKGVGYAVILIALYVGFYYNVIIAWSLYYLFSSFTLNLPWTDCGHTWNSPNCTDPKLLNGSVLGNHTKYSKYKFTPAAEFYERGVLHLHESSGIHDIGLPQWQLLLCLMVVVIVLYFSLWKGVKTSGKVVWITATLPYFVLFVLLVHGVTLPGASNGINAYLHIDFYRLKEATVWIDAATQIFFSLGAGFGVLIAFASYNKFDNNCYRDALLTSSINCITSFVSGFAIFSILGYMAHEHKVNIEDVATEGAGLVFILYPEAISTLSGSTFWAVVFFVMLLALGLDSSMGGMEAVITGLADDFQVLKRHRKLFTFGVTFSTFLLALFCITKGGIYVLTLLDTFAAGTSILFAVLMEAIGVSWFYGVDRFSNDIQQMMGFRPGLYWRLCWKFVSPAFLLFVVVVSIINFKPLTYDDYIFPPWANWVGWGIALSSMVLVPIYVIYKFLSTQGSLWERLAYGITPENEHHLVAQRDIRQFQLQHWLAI

Structure (SMILES)	Ki [1] [nM]	Ki [2] [nM]	inhibition in vivo at 10 mg/kg ([3]; 1 h) [%]	inhibition in vivo at 10 mg/kg ([3]; male Sprague-Dawley rats, 10 mg/kg subcutaneously, PWT 1 hour after single dose, mean +/- SEM of eight animals, normalized for vehicle) [%]
c1ccc([C@@H]2CCNC[C@H]2COc2ccnc3ccsc23)cc1 [Example 35, (3S,4R)-7-(4-Phenyl-piperidin-3-ylmethoxy)-thieno[3,2-b]pyridine]	8.4	14.6	5.5	–
NC(=O)c1ccc(OC[C@@H]2CNCC[C@H]2c2ccccc2)cc1 [Example 38, (3S,4R)-4-(4-Phenyl-piperidin-3-ylmethoxy)-benzamide]	174	12.1	–	0.2
